Measured values from patent US20120093809A1, “USE OF ALKANOYL L-CARNITINE IN COMBINATION WITH CHEMOTHERAPEUTIC AGENTS FOR THE TREATMENT OF NEOPLASMS” (priority 2008, published 2012).

Experiments:
[1] = tested on: A2780/Dx multidrug-resistant ovarian carcinoma
Method: A2780/Dx cancer cells were injected subcutaneously (s.c.) in the right flank of CD1 nude mice (5×10^6/100 μL/mouse). Treatments started eleven days after cancer injection.
Mice were subdivided (10 mice/group) in the following experimental groups: doxorubicin was given intravenously according to the schedule q7dx3 and acetyl-L-carnitine according to the schedule qdx5/wx3w.
Acetyl L-carnitine was administered immediately before the agent given in combination.
To evaluate the anticancer activity, tumor diameters were measured with a Vernier caliper. The formula TV (mm^3)=[length (mm)×width (mm)^2]/2 was used, where the width and the length are the shortest and the longest diameters of each cancer, respectively. Efficacy of the molecule was evaluated as tumor volume inhibition (TVI %) according to the equation: % TVI=100-[(mean cancer weight of treated mice/mean cancer weight of control group)×100]. and Log10 cell kill (LCK) calculated by the formula LCK=(T−C)/3.32×DT, where T and C were the mean times (days) required for treated (T) and control (C) tumors, respectively, to reach 1 cm^3, and DT was the doubling time of control tumors. When tumors reached a volume of about 2 cm^3, mice were sacrificed by cervical dislocation.

[2] = tested on: NCI-H460 non-small cell lung carcinoma; test: Antitumor effect of carboplatin with and without acetyl L-carnitine, s.c. xenograft
Method: Treatments started three days after cancer injection. Mice were subdivided (8 mice/group) in the following experimental groups: vehicle receiving only sterile water, carboplatin 40 mg/kg, i.p. q4d/wx3w; acetyl L-carnitine (200 mg/kg po, qdx5/wx3w)+carboplatin.
Body weight recording was carried out through the study.

tumour growth = settings: WO/2000/06134, cited from earlier work
[3] = tested on: NCI-H460 non-small cell lung carcinoma; test: Antitumor activity of cisplatin in combination with L-carnitine, s.c. xenograft; format: in vivo; settings: L-carnitine 200 mg/kg po given chronically
Method: Treatments started three days after tumor injection.
To evaluate the antitumor activity, tumor diameters were measured with a Vernier caliper.
When tumors reached a volume of 1-2 cm^3, mice were sacrificed by cervical dislocation. Body weight recording was carried out through the study and mortality was noted.

lung metastases [4] = settings: WO/2000/06134; ALC orally 100 mg/kg; cited from earlier work
[5] = tested on: LnCaP prostate carcinoma cells (p53 wild-type); test: Antiproliferative activity of cisplatin with and without acetyl L-carnitine, MTT assay; format: cell-based; settings: acetyl L-carnitine 10 mM; ≧72 h of exposure; 0.1% FBS
Method: (§1) Moreover, the activity was also evaluated on two prostate tumor cell lines with p53 wild-type (LnCaP) or p53 null (PC3). […] The number of surviving cells was finally determined by the tetrazolium salt (MTT) assay, as described by Hansen M B et al. (Re-examination and further development of a precise and rapid dye method for measuring cell growth/cell kill. J. Immunol. Methods 119: 203-10, 1989). […] In this case the statistical comparison was performed by Mann-Whitney test.
(§2) To test the effects of the compounds on cell growth, tumor cells were seeded in 96-well tissue culture plates at approximately 10% confluence and were allowed to attach and recover for at least 24 h. Tumor cells were exposed to compounds for 72 h or 6 days in 0.1% FBS at 37° C., then medium culture was removed and 100 μL/well of medium were added containing 25 μL/well of a solution 5 mg/mL MTT (final 1 mg/mL). Plates were kept at. 37° C. in incubator with 5% CO2 for 2 h for the formation of blu chrystals. The supernatant was removed and 100 μL/well of lysant medium were added. Plates were kept under stirring for 60 min. The survival cell was determined as optical density by a Multiskan spectrofluorimeter at 570 nm.

[6] = tested on: SJSA-1 (with amplification of mdm2) osteosarcoma cells; test: as above; format: cell-based
Method: as §1, §2

[7] = tested on: NCI-H1650 non-small cell lung carcinoma cells; test: as above; format: cell-based
Method: as §1, §2

lung metastases [8] = settings: ALC 100 mg/kg/day p.o.; cited from earlier work
[9] = tested on: A2780/Dx multidrug-resistant ovarian carcinoma cells; test: Antiproliferative activity of cisplatin with and without acetyl L-carnitine, MTT assay; format: cell-based
Method: as §1
as §2, with “Tumor cells were exposed to compounds for 72 h or 6 days in 0.1% FBS at 37° C., then medium culture was removed and 100 μL/well of medium were added containing 25 μL/well of a solution 5 mg/mL MTT (final 1 mg/mL).” left out

[10] = tested on: NCI-H460 non-small cell lung carcinoma cells; test: as above; format: cell-based
Method: as §1
as §2, with “Tumor cells were exposed to compounds for 72 h or 6 days in 0.1% FBS at 37° C., then medium culture was removed and 100 μL/well of medium were added containing 25 μL/well of a solution 5 mg/mL MTT (final 1 mg/mL).” left out

[11] = day +24, doxorubicin 6 mg/kg iv, alone or with acetyl L-carnitine 200 mg/kg po
[12] = day +31, carboplatin 40 mg/kg ip q4d/wx3w, alone or with acetyl L-carnitine 200 mg/kg po qdx5/wx3w
[13] = acetyl L-carnitine 1 mM, same schedule and serum conditions
[14] = acetyl L-carnitine 10 mM, 72 h, medium with 10% FBS
[15] = acetyl L-carnitine 10 mM, ≧72 h of exposure, 0.1% FBS

SMILES: COc1cccc2c1C(=O)c1c(O)c3c(c(O)c1C2=O)C[C@@](O)(C(=O)CO)C[C@@H]3O[C@H]1C[C@H](N)[C@H](O)[C@H](C)O1 [Doxorubicin, doxorubicin]
- LCK (1 cm^3) ([1]; DT = 2.9 days, doxorubicin 6 mg/kg iv, alone or with acetyl L-carnitine 200 mg/kg po): 0.7
- TV ± SE +24 [1, 11]: 1059 ± 195 mm^3
- TVI % ± SE +24 [1, 11]: **60 ± 11%
- Leth. ([1]; dead/total mice, doxorubicin 6 mg/kg iv, alone or with acetyl L-carnitine 200 mg/kg po): 0/10
- BWL % max ([1]; doxorubicin 6 mg/kg iv q7dx3, alone or with acetyl L-carnitine 200 mg/kg po qdx5/wx3w): 0%

SMILES: N.N.O=C([O-])C1(C(=O)[O-])CCC1.[Pt+2] [CARBOPLATIN, Carboplatin]
- LCK (1 cm^3) ([2]; Log10 cell kill, DT = 3.6 days, carboplatin 40 mg/kg ip, alone or with acetyl L-carnitine 200 mg/kg po): 0.66
- BWL % ([2]; carboplatin 40 mg/kg ip q4d/wx3w, alone or with acetyl L-carnitine 200 mg/kg po qdx5/wx3w): 1%
- TV ± SE +31 [2, 12]: *704 ± 254 mm^3
- TVI % +31 [2, 12]: 48%
- TVI % +31 ([2]; day +31, carboplatin 40 mg/kg ip q4d/wx3w, alone or with acetyl L-carnitine 200 mg/kg po qdx5/wx3w, listed as carboplatin): about 48%
- LETHAL ([2]; dead/total mice, carboplatin 40 mg/kg ip q4d/wx3w, alone or with acetyl L-carnitine 200 mg/kg po qdx5/wx3w): 0/8

SMILES: CC(=O)O[C@H]1C(=O)[C@@]2(C)[C@H]([C@H](OC(=O)c3ccccc3)[C@]3(O)C[C@H](OC(=O)[C@H](O)[C@@H](NC(=O)c4ccccc4)c4ccccc4)C(C)=C1C3(C)C)[C@]1(OC(C)=O)CO[C@@H]1C[C@@H]2O [Paclitaxel]
- TVI (tumour growth; ALC orally 100 mg/kg where combined): 88%

SMILES: C[N+](C)(C)C[C@H](O)CC(=O)[O-] [L-carnitine]
- potentiation of the cytotoxic activity of cisplatin [3]: not able to potentiate the cytotoxic activity of cisplatin

SMILES: CC(=O)O[C@H](CC(=O)[O-])C[N+](C)(C)C [acetyl L-carnitine]
- effect on tumour growth (tumour growth; ALC orally 100 mg/kg): no effect on tumour growth
- effect on the formation of lung metastases (lung metastases [4]): significant inhibitory effect on the formation of lung metastases
- potentiation of the cytotoxic activity of cisplatin [5]: able to potentiate the cytotoxic activity of cisplatin
- potentiation of the cytotoxic activity of cisplatin [6, 13]: ineffective
- potentiation of the cytotoxic activity of cisplatin [6, 14]: failed to increase cisplatin anti-proliferative activity
- potentiation of the cytotoxic activity of cisplatin ([6]; acetyl L-carnitine 10 mM, 72 h of exposure, 0.1% FBS): able to potentiate the cytotoxic activity of cisplatin
- potentiation of the cytotoxic activity of cisplatin [7, 13]: ineffective
- potentiation of the cytotoxic activity of cisplatin [7, 14]: failed to increase cisplatin anti-proliferative activity
- potentiation of the cytotoxic activity of cisplatin [7, 15]: able to potentiate the cytotoxic activity of cisplatin
- protection from toxicity of the antitumor drug (lung metastases [8]): protects the mice from the lethal toxicity and from the neurotoxicity
- potentiation of the cytotoxic activity of cisplatin [9, 13]: ineffective
- potentiation of the cytotoxic activity of cisplatin [9, 14]: failed to increase cisplatin anti-proliferative activity
- potentiation of the cytotoxic activity of cisplatin [9, 15]: able to potentiate the cytotoxic activity of cisplatin
- potentiation of the cytotoxic activity of cisplatin [10, 13]: ineffective
- potentiation of the cytotoxic activity of cisplatin [10, 14]: failed to increase cisplatin anti-proliferative activity
- potentiation of the cytotoxic activity of cisplatin [10, 15]: able to potentiate the cytotoxic activity of cisplatin
